Test results taken from patent EP3228306A1, “COMPLEX COMPOUND COMPRISING OBETICHOLIC ACID AND CYCLODEXTRIN AND PHARMACEUTICAL FORMULATION COMPRISING THE COMPLEX COMPOUND” (ratiopharm GmbH, priority 2016, dated 2017).
Values after ≈ are worked out from the molar mass of the structure shown. Read-outs that look alike come from different tables or passages of the source.

Assays:
[1] = Solubility of OCA in concentrated aqueous CD solutions (Experiment 2); type: physicochemical; settings: stirred 60 h
Method: Variable amounts of solid OCA (left column of the Tables given below) were stirred in aqueous CD-solutions (14% (w/w) α-CD, 1.8% β-CD, 20% γ-CD, 20% HP-β-CD, 30% SB-β-CD, 30% RM-β-CD, and 40% HP-γ-CD) for 60 h. Aliquots were filtered through 0.2 µm disposable PTFE filters and the filtrates were analyzed by HPLC/UV. The concentration of OCA was determined based on a calibration curve which was established by twofold analysis of five calibration standards with 0.01 mg/mL to 1.0 mg/mL OCA.

[2] = reported in WO 2013/192097; measured in 0.1 N HCl after equilibration under stirring for one week at 25°C; cited from earlier work
[3] = Solubility of OCA:CD complexes in physiologically relevant media; type: physicochemical; settings: thermodynamic from solid, 37°C, complex corresponding to 20 mg obeticholic acid in 2 mL
Method: Obeticholic acid (OCA) or OCA: Cyclodextrin (CD) complex was weighed into a glass vial, followed by addition of 1 or 2 ml solvent (water, 0.01 N HCl, phosphate buffer pH 6.8 and FaSSIF). A stirring bar was added, the vial was fixed in a block heater at 37°C and the suspension was stirred with approx. 250 rpm. After 15 min and 1 h, samples were withdrawn, filtered through a 0.2 µm disposable filter, 100 µl of the clear filtrate were diluted with 900 µl acetonitrile (ACN):Water (1:1) and 1 µl thereof were analyzed by UHPLC/UV.
Solubilities of OCA:CD complexes were determined by stirring an amount of complex which corresponds to 20 mg of obeticholic acid (calculated from the known drug loads) in 2 mL of solvent for 15 min and 60 min at 37°C according to the method described above under "Analytical Methods". Solubility values are given in mg/ml.

[4] = cited from earlier work

## CC[C@H]1[C@@H](O)[C@@H]2[C@H](CC[C@]3(C)[C@@H]([C@H](C)CCC(=O)O)CC[C@@H]23)[C@@]2(C)CC[C@@H](O)C[C@@H]12 [OCA, 6α-ethyl-chenodeoxycholic acid]
[1]; HP-β-CD (20%) aqueous solution, OCA 10 mg/mL weighed
  dissolved OCA: 9.425 mg/mL
[1]; HP-β-CD (20%) aqueous solution, OCA 20 mg/mL weighed
  dissolved OCA: 18.716 mg/mL
[1]; HP-β-CD (20%) aqueous solution, OCA 40 mg/mL weighed
  dissolved OCA: 37.499 mg/mL
[1]; HP-β-CD (20%) aqueous solution, OCA 50 mg/mL weighed
  dissolved OCA: 45.473 mg/mL
[1]; HP-β-CD (20%) aqueous solution, OCA 60 mg/mL weighed
  dissolved OCA: 45.785 mg/mL
[1]; HP-γ-CD (40%) aqueous solution, OCA 10 mg/mL weighed
  dissolved OCA: 8.704 mg/mL
[1]; HP-γ-CD (40%) aqueous solution, OCA 20 mg/mL weighed
  dissolved OCA: 18.095 mg/mL
[1]; HP-γ-CD (40%) aqueous solution, OCA 40 mg/mL weighed
  dissolved OCA: 35.632 mg/mL
[1]; HP-γ-CD (40%) aqueous solution, OCA 80 mg/mL weighed
  dissolved OCA: 62.989 mg/mL
[1]; RM-β-CD (30%) aqueous solution, OCA 20 mg/mL weighed
  dissolved OCA: 17.374 mg/mL
[1]; RM-β-CD (30%) aqueous solution, OCA 40 mg/mL weighed
  dissolved OCA: 37.316 mg/mL
[1]; RM-β-CD (30%) aqueous solution, OCA 80 mg/mL weighed
  dissolved OCA: 63.629 mg/mL
[1]; RM-β-CD (30%) aqueous solution, OCA 160 mg/mL weighed
  dissolved OCA: 78.693 mg/mL
[1]; SB-β-CD (30%) aqueous solution, OCA 20 mg/mL weighed
  dissolved OCA: 17.545 mg/mL
[1]; SB-β-CD (30%) aqueous solution, OCA 40 mg/mL weighed
  dissolved OCA: 38.735 mg/mL
[1]; SB-β-CD (30%) aqueous solution, OCA 80 mg/mL weighed
  dissolved OCA: 60.767 mg/mL
[1]; SB-β-CD (30%) aqueous solution, OCA 160 mg/mL weighed
  dissolved OCA: 57.080 mg/mL
[1]; α-CD (14%) aqueous solution, OCA 5 mg/mL weighed
  dissolved OCA: 4.614 mg/mL
[1]; α-CD (14%) aqueous solution, OCA 10 mg/mL weighed
  dissolved OCA: 6.154 mg/mL
[1]; α-CD (14%) aqueous solution, OCA 20 mg/mL weighed
  dissolved OCA: 6.937 mg/mL
[1]; α-CD (14%) aqueous solution, OCA 40 mg/mL weighed
  dissolved OCA: 7.141 mg/mL
[1]; β-CD (1.8%) aqueous solution, OCA 2.5 mg/mL weighed
  dissolved OCA: 2.229 mg/mL
[1]; β-CD (1.8%) aqueous solution, OCA 5 mg/mL weighed
  dissolved OCA: 4.312 mg/mL
[1]; β-CD (1.8%) aqueous solution, OCA 10 mg/mL weighed
  dissolved OCA: 4.830 mg/mL
[1]; β-CD (1.8%) aqueous solution, OCA 20 mg/mL weighed
  dissolved OCA: 4.880 mg/mL
[1]; γ-CD (20%) aqueous solution, OCA 5 mg/mL weighed
  dissolved OCA: 0.069 mg/mL
[1]; γ-CD (20%) aqueous solution, OCA 10 mg/mL weighed
  dissolved OCA: 0.069 mg/mL
[1]; γ-CD (20%) aqueous solution, OCA 20 mg/mL weighed
  dissolved OCA: 0.066 mg/mL
[1]; γ-CD (20%) aqueous solution, OCA 40 mg/mL weighed
  dissolved OCA: 0.055 mg/mL
[2]
  water solubility: 7.5 µg/mL (≈ 17.8 µM)
[3]; 0.01 N HCl, pH 2.2, simulated gastric fluid, read-out: Solubility, 0.01 N HCl (pH 2.2), 15 min
  solubility at 15 min: < 10 µg/mL
[3]; 0.01 N HCl, pH 2.2, simulated gastric fluid, read-out: Solubility, 0.01 N HCl (pH 2.2), 60 min
  solubility at 60 min: < 10 µg/mL
[3]; 50 mM KH2PO4 phosphate buffer, pH 6.5, aqueous buffer, read-out: Solubility, 50 mM KH2PO4 (pH 6.5), 15 min
  solubility at 15 min: 110 µg/mL (≈ 262 µM)
[3]; 50 mM KH2PO4 phosphate buffer, pH 6.5, aqueous buffer, read-out: Solubility, 50 mM KH2PO4 (pH 6.5), 60 min
  solubility at 60 min: 110 µg/mL (≈ 262 µM)
[3]; FaSSIF, pH 6.5, fassif, Fasted State Simulated Intestinal Fluid, read-out: Solubility, FassiF* (pH 6.5), 15 min
  solubility at 15 min: 520 µg/mL (≈ 1240 µM)
[3]; FaSSIF, pH 6.5, fassif, Fasted State Simulated Intestinal Fluid, read-out: Solubility, FassiF* (pH 6.5), 60 min
  solubility at 60 min: 420 µg/mL (≈ 998 µM)
[3]; water, pH 7, water, read-out: Solubility, Water (pH 7), 15 min
  solubility at 15 min: < 10 µg/mL
[3]; water, pH 7, water, read-out: Solubility, Water (pH 7), 60 min
  solubility at 60 min: < 10 µg/mL
[4]
  thermodynamic pKa: about 5
